Data from patent US8476298B2 (Exelixis, Inc., priority 2003, dated 2013).
pIC50: −log10 of the molar value.

Columns and labels:
[1] = target: T1, c-Met (baculovirus expressed human c-Met kinase domain P948-S1343) (Homo sapiens, UniProt P08581); assay: c-Met Luciferase-Coupled Chemiluminescent Kinase assay (LCCA); assay type: biochemical;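 also: kinase activity read as percent ATP left after reaction, by luciferase-luciferin chemiluminescence, with 1 µM ATP and 1 µM poly-EY substrate, 2 h at ambient temperature, 10-point dose-response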
T1 construct: human c-Met kinase domain P948-S1343; host or cells: baculovirus expression

[2] = target: T2, Flt-3 (baculovirus expressed human Flt-3 kinase domain R571-S993) (Homo sapiens, UniProt P36888); assay: biochemical; details: read-out: flt3 IC50;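 also: Luciferase-coupled chemiluminescent kinase assay, activity read as percent ATP left after a 3 h reaction at room temperature, ATP near KM, 10-point dose-response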
T2 construct: human Flt-3 kinase domain R571-S993; host or cells: baculovirus expression
T2 sequence (P36888 571-993): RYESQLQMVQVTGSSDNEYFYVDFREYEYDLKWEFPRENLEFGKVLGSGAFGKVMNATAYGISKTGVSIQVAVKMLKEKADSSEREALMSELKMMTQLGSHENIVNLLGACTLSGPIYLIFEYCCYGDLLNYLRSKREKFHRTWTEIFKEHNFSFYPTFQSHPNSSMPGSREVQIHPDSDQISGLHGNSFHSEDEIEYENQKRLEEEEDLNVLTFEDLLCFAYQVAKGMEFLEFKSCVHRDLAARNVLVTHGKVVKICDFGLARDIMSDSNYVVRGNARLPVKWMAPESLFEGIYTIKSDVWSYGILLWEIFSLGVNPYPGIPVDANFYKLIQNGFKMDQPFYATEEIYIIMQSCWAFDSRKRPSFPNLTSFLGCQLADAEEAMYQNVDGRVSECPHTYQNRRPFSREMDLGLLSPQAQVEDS

[3] = target: T3, KDR (baculovirus expressed human KDR kinase domain D807-V1356) (Homo sapiens, UniProt P35968); assay: biochemical;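 also: Luciferase-coupled chemiluminescent kinase assay, activity read as percent ATP left after 4 h reaction at ambient temperature, ATP near KM, 10-point dose-response in 384-well plates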
T3 construct: human KDR kinase domain D807-V1356; host or cells: baculovirus expression

[4] = target: T4, Flt-4 (baculovirus expressed human Flt-4 kinase domain D725-R1298) (Homo sapiens, UniProt P35916); assay: flt-4 Alphascreen Tyrosine Kinase assay; assay type: biochemical; details: read-out: flt4 IC50;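 also: AlphaScreen chemiluminescence read-out of biotinylated poly(Glu,Tyr) 4:1 phosphorylation via streptavidin donor and PY100 anti-phosphotyrosine acceptor beads, ATP near KM, 1 hr kinase reaction, 10-point dose-response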
T4 construct: human Flt-4 kinase domain D725-R1298; host or cells: baculovirus expression

c-Kit kinase = c-Kit kinase (Homo sapiens, UniProt P10721); assay: c-Kit AlphaScreen kinase assay; assay type: biochemical;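 also: c-Kit kinase phosphorylating biotinylated poly(Glu,Tyr), ATP near its KM, 1 h reaction at ambient temperature, AlphaScreen chemiluminescence with streptavidin donor and anti-phosphotyrosine acceptor beads, 10-point inhibitor titration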
c-Kit kinase, sequence (P10721 26-976): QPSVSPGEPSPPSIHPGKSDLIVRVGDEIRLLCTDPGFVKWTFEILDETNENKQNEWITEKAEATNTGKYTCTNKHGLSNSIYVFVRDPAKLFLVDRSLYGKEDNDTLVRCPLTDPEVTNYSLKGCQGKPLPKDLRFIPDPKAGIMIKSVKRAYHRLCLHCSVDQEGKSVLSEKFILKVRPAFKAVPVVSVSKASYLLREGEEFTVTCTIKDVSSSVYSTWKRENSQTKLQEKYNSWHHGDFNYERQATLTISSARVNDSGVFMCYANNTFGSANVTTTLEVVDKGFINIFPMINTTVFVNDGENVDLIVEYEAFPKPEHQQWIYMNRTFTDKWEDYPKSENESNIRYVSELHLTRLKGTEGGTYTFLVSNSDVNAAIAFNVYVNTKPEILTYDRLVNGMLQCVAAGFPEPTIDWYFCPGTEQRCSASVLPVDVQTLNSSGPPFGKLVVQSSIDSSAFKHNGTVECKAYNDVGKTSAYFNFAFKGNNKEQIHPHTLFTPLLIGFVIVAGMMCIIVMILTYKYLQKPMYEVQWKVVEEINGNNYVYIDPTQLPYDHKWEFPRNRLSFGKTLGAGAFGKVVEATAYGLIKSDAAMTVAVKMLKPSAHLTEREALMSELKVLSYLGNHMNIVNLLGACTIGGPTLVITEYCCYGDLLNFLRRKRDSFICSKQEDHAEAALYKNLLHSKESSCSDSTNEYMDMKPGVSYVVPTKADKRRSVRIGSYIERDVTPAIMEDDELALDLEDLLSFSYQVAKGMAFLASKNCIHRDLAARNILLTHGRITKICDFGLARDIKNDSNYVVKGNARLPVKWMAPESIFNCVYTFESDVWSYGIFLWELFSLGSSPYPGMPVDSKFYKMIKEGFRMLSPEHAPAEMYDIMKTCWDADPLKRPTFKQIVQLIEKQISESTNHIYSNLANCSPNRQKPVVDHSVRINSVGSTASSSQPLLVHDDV

T4 sequence (P35916 725-1298 isoform P35916-1): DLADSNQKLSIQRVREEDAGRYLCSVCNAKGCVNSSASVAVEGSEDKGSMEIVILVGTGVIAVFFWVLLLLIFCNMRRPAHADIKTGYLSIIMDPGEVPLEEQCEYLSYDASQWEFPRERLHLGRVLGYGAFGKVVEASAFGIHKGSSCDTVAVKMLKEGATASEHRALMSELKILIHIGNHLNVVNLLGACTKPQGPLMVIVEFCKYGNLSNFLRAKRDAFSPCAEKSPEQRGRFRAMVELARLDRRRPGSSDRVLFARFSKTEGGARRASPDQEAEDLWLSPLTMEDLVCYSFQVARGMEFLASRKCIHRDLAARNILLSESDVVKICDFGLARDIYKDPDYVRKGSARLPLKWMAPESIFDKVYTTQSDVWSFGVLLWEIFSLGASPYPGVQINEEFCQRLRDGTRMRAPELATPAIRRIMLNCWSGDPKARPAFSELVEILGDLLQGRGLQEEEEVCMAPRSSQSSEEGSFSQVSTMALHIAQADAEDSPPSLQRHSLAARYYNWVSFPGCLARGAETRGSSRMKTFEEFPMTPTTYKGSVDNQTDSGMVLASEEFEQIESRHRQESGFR
T1 sequence (P08581 1011-1343 limits assumed): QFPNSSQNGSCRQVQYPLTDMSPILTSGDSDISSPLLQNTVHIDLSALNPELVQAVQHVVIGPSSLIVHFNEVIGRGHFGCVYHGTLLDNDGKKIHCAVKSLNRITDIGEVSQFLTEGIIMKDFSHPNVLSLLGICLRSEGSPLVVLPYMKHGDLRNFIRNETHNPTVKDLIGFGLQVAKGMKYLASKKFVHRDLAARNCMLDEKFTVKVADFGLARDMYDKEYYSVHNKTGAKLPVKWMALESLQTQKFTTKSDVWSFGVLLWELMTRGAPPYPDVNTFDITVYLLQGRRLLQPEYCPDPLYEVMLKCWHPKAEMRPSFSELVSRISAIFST
T3 sequence (P35968 807-1356): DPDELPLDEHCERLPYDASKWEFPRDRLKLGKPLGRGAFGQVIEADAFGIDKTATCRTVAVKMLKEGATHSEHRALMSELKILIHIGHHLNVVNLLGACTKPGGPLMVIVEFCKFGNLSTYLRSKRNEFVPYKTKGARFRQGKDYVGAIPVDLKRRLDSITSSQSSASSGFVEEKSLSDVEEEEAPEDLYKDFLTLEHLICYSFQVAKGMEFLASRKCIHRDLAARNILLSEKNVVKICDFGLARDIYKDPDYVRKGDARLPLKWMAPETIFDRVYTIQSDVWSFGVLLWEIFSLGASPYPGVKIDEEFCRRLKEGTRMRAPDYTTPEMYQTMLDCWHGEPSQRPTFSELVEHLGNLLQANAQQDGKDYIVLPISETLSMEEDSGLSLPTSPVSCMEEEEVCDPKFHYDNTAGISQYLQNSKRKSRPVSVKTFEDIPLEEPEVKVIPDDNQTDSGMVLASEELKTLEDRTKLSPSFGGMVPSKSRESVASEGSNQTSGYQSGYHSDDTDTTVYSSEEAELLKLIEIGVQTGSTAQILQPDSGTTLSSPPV

| SMILES | pIC50 [1] | pIC50 [2] | pIC50 [3] | pIC50 [4] | pIC50 (c-Kit kinase) |
| --- | --- | --- | --- | --- | --- |
| COc1cc2c(Oc3ccc(NC(=O)C4(C(=O)Nc5ccc(F)cc5)CCC4)cc3F)ccnc2cc1OCCCN1CCCCC1 [Example 314, N-[3-fluoro-4-({6-(methyloxy)-7-[(3-piperidin-1-ylpropyl)oxy]quinolin-4-yl}oxy)phenyl]-N′-(4-fluorophenyl)cyclobutane-1,1-dicarboxamide] | > 7.30 | 6.30 to 7.30 | > 7.30 | > 7.30 | > 7.30 |
| COc1cc2c(Oc3ccc(NC(=O)C4(C(=O)Nc5ccc(F)cc5)CC4)cc3F)ncnc2cc1OCC1CCN(C)CC1 [Example 316, N-{3-fluoro-4-[(6-(methyloxy)-7-{[(1-methylpiperidin-4-yl)methyl]oxy}quinazolin-4-yl)oxy]phenyl}-N′-(4-fluorophenyl)cyclopropane-1,1-dicarboxamide] | > 7.30 | > 7.30 | > 7.30 | > 7.30 | > 7.30 |
| COc1cc2nccc(Oc3ccc(NC(=O)C4(C(=O)Nc5ccc(F)cc5)CC4)c(C)c3)c2cc1OC [Example 317, N-(4-{[6,7-bis(methyloxy)quinolin-4-yl]oxy}-2-methylphenyl)-N′-(4-fluorophenyl)cyclopropane-1,1-dicarboxamide] | > 7.30 | 5.30 to 6.30 | > 7.30 | > 7.30 | > 7.30 |
| COc1cc2nccc(Oc3nc(C)c(NC(=O)C4(C(=O)Nc5ccc(F)cc5)CC4)cc3Cl)c2cc1OC [Example 320, N-(6-{[6,7-bis(methyloxy)quinolin-4-yl]oxy}-5-chloro-2-methylpyridin-3-yl)-N′-(4-fluorophenyl)cyclopropane-1,1-dicarboxamide] | > 7.30 | 6.30 to 7.30 | 5.30 to 6.30 | 5.30 to 6.30 | 5.30 to 6.30 |
| COc1cc2nccc(Oc3c(F)cc(NC(=O)C4(C(=O)Nc5ccc(F)cc5)CC4)cc3F)c2cc1OC [Example 323, N-(4-{[6,7-bis(methyloxy)quinolin-4-yl]oxy}-3,5-difluorophenyl)-N′-(4-fluorophenyl)cyclopropane-1,1-dicarboxamide] | > 7.30 | > 7.30 | > 7.30 | > 7.30 | 6.30 to 7.30 |
| COc1cc2nccc(Oc3cc(F)c(NC(=O)C4(C(=O)Nc5ccc(F)cc5)CC4)cc3F)c2cc1OC [Example 324, N-(4-{[6,7-bis(methyloxy)quinolin-4-yl]oxy}-2,5-difluorophenyl)-N′-(4-fluorophenyl)cyclopropane-1,1-dicarboxamide] | > 7.30 | > 7.30 | > 7.30 | > 7.30 | > 7.30 |
| COc1cc2ncnc(Oc3ccc(NC(=O)C4(C(=O)Nc5ccc(F)cc5)CC4)cc3F)c2cc1OCC1CCN(C)CC1 [Example 325, N-{3-fluoro-4-[(7-(methyloxy)-6-{[(1-methylpiperidin-4-yl)methyl]oxy}quinazolin-4-yl)oxy]phenyl}-N′-(4-fluorophenyl)cyclopropane-1,1-dicarboxamide] | > 7.30 | > 7.30 | > 7.30 | > 7.30 | 6.30 to 7.30 |
| COc1cc2nccc(Oc3c(F)cc(NC(=O)C4(C(=O)Nc5ccc(F)cc5)CC4)c(F)c3F)c2cc1OC [Example 327, N-(4-{[6,7-bis(methyloxy)quinolin-4-yl]oxy}-2,3,5-trifluorophenyl)-N′-(4-fluorophenyl)cyclopropane-1,1-dicarboxamide] | > 7.30 | 6.30 to 7.30 | > 7.30 | 6.30 to 7.30 | 6.30 to 7.30 |
| COc1cc2nccc(Oc3cc(Cl)c(NC(=O)C4(C(=O)Nc5ccc(F)cc5)CC4)cc3C)c2cc1OC [Example 329, N-(4-{[6,7-bis(methyloxy)quinolin-4-yl]oxy}-2-chloro-5-methylphenyl)-N′-(4-fluorophenyl)cyclopropane-1,1-dicarboxamide] | > 7.30 | 5.30 to 6.30 | 6.30 to 7.30 | 6.30 to 7.30 | 6.30 to 7.30 |
| COc1cc2nccc(Oc3ccc(NC(=O)C4(C(=O)Nc5ccc(F)cc5)CC4)cc3F)c2cc1O [Example 330, N-(3-fluoro-4-{[6-hydroxy-7-(methyloxy)quinolin-4-yl]oxy}phenyl)-N′-(4-fluorophenyl)cyclopropane-1,1-dicarboxamide] | > 7.30 | > 7.30 | > 7.30 | > 7.30 | > 7.30 |
| COc1cc2c(Oc3ccc(NC(=O)C4(C(=O)Nc5ccc(F)cc5)CC4)cc3F)ccnc2cc1OCCCN1CCNCC1 [Example 332, N-[3-fluoro-4-({6-(methyloxy)-7-[(3-piperazin-1-ylpropyl)oxy]quinolin-4-yl}oxy)phenyl]-N′-(4-fluorophenyl)cyclopropane-1,1-dicarboxamide] | > 7.30 | > 7.30 | > 7.30 | > 7.30 | > 7.30 |

Second part, the molecule after the results:

| pIC50 [1] | pIC50 [2] | pIC50 [3] | pIC50 [4] | pIC50 (c-Kit kinase) | SMILES |
| --- | --- | --- | --- | --- | --- |
| > 7.30 | > 7.30 | > 7.30 | > 7.30 | > 7.30 | COc1cc2c(Oc3ccc(NC(=O)C4(C(=O)Nc5ccc(F)cc5)CC4)cc3F)ncnc2cc1OCCCN1CCOCC1 [Example 315, N-[3-fluoro-4-({6-(methyloxy)-7-[(3-morpholin-4-ylpropyl)oxy]quinazolin-4-yl}oxy)phenyl]-N′-(4-fluorophenyl)cyclopropane-1,1-dicarboxamide] |
| > 7.30 | 6.30 to 7.30 | > 7.30 | 6.30 to 7.30 | 6.30 to 7.30 | COc1cc2c(Oc3ccc(NC(=O)C4(C(=O)Nc5ccc(F)cc5)CC4)c(C)n3)ccnc2cc1OCCCN1CCOCC1 [Example 318, N-(4-fluorophenyl)-N′-[2-methyl-6-({6-(methyloxy)-7-[(3-morpholin-4-ylpropyl)oxy]quinolin-4-yl}oxy)pyridin-3-yl]cyclopropane-1,1-dicarboxamide] |
| > 7.30 | > 7.30 | > 7.30 | > 7.30 | 6.30 to 7.30 | COc1cc2ncnc(Oc3ccc(NC(=O)C4(C(=O)Nc5ccc(F)cc5)CC4)cc3F)c2cc1OCCCN1CCOCC1 [Example 321, N-[3-fluoro-4-({7-(methyloxy)-6-[(3-morpholin-4-ylpropyl)oxy]quinazolin-4-yl}oxy)phenyl]-N′-(4-fluorophenyl)cyclopropane-1,1-dicarboxamide] |
| > 7.30 | > 7.30 | > 7.30 | > 7.30 | > 7.30 | COc1cc2nccc(Oc3ccc(NC(=O)C4(C(=O)Nc5ccc(F)cc5)CC4)cc3F)c2cc1OCCCN1CCOCC1 [Example 322, N-[3-fluoro-4-({7-(methyloxy)-6-[(3-morpholin-4-ylpropyl)oxy]quinolin-4-yl}oxy)phenyl]-N′-(4-fluorophenyl)cyclopropane-1,1-dicarboxamide] |
| > 7.30 | 6.30 to 7.30 | > 7.30 | 6.30 to 7.30 | 6.30 to 7.30 | COc1cc2c(Oc3cc(C)c(NC(=O)C4(C(=O)Nc5ccc(F)cc5)CC4)cc3F)ccnc2cc1OCCCN1CCOCC1 [Example 326, N-[5-fluoro-2-methyl-4-({6-(methyloxy)-7-[(3-morpholin-4-ylpropyl)oxy]quinolin-4-yl}oxy)phenyl]-N′-(4-fluorophenyl)cyclopropane-1,1-dicarboxamide] |
| > 7.30 | 5.30 to 6.30 | 6.30 to 7.30 | 5.30 to 6.30 | 6.30 to 7.30 | COc1cc2nccc(Oc3cc(C)c(NC(=O)C4(C(=O)Nc5ccc(F)cc5)CC4)cc3F)c2cc1OC [Example 328, N-(4-{[6,7-bis(methyloxy)quinolin-4-yl]oxy}-5-fluoro-2-methylphenyl)-N′-(4-fluorophenyl)cyclopropane-1,1-dicarboxamide] |
| > 7.30 | 6.30 to 7.30 | > 7.30 | > 7.30 | > 7.30 | COc1cc2c(Oc3ccc(NC(=O)C4(C(=O)Nc5ccc(F)cc5)CC4)c(C)c3)ccnc2cc1OCCCN1CCOCC1 [Example 331, N-(4-fluorophenyl)-N′-[2-methyl-4-({6-(methyloxy)-7-[(3-morpholin-4-ylpropyl)oxy]quinolin-4-yl}oxy)phenyl]cyclopropane-1,1-dicarboxamide] |
| > 7.30 | > 7.30 | > 7.30 | > 7.30 | > 7.30 | COc1cc2c(Oc3ccc(NC(=O)C4(C(=O)Nc5ccc(F)cc5)CC4)cc3F)ccnc2cc1OCCCN1CCN(C)CC1 [Example 333, N-{3-fluoro-4-[(6-(methyloxy)-7-{[3-(4-methylpiperazin-1-yl)propyl]oxy}quinolin-4-yl)oxy]phenyl}-N′-(4-fluorophenyl)cyclopropane-1,1-dicarboxamide] |
